# Experiments:
# SIK3 (human) = SIK3 (human) (Homo sapiens, UniProt Q9Y2K2); assay: Enzymatic radiometric assay against human salt-inducible kinase-3 (SIK3); assay type: biochemical; conditions: at a concentration of 1 μM; read-out: inhibition of SIK-3 activity
# Experimental: Assay 1: Determination of IC50 of Compound M1 Against Human Salt-Inducible Kinase-3 (SIK3) Using an Enzymatic Radiometric Assay
# • SIK3 (human) was incubated with 8 mM MOPS pH 7.0, 0.2 mM EDTA, 100 uM of the peptide […] (Substrate), 10 mM Mg Acetate and [gamma-33P-ATP] (specific activity and concentration as required) in the presence of Compound M1. • The reaction was initiated by the addition of the Mg/ATP mix. • After incubation for 40 minutes at room temperature, the reaction was stopped by the addition of phosphoric acid to a concentration of 0.5%. • 10 μL of the reaction mixture was then spotted onto a P30 filtermat and washed four times for 4 minutes in 0.425% phosphoric acid and once in methanol prior to drying and scintillation counting. • The IC50 value was calculated using GraphPad Prism.
# 6 isoform of PI3K = 6 isoform of PI3K (Homo sapiens, UniProt O00329); conditions: background statement; cited from earlier work
# Chain of 6 isoform of PI3K (O00329 whole entry, canonical isoform): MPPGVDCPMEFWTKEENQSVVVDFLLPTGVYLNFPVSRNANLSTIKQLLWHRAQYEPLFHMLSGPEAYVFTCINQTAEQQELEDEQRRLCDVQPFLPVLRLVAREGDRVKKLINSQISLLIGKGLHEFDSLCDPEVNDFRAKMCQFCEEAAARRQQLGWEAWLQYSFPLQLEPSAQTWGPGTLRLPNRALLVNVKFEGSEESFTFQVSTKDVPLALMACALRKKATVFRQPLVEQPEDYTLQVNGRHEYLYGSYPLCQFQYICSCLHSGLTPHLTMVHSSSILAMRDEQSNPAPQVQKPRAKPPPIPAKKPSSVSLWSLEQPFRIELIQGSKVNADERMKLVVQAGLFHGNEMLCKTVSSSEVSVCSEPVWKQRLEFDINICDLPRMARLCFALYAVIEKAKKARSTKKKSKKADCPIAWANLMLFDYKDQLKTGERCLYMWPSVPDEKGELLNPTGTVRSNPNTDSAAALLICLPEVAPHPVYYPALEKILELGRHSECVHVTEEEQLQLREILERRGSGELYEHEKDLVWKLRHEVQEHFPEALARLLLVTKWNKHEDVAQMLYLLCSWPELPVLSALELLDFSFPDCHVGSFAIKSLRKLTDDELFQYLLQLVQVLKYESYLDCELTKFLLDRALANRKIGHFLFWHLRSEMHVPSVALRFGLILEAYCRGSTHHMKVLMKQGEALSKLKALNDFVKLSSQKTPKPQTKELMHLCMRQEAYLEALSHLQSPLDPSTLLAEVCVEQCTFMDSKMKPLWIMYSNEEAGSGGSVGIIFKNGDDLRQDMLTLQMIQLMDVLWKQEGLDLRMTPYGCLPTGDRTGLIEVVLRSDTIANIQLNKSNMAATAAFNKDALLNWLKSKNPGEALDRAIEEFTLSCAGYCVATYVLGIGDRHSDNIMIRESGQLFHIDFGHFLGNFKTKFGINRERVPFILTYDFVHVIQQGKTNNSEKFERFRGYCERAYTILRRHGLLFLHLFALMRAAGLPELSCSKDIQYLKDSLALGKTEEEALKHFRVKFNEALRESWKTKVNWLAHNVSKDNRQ
# Chain of 6 isoform of PI3K (P27986 whole entry partner, canonical isoform): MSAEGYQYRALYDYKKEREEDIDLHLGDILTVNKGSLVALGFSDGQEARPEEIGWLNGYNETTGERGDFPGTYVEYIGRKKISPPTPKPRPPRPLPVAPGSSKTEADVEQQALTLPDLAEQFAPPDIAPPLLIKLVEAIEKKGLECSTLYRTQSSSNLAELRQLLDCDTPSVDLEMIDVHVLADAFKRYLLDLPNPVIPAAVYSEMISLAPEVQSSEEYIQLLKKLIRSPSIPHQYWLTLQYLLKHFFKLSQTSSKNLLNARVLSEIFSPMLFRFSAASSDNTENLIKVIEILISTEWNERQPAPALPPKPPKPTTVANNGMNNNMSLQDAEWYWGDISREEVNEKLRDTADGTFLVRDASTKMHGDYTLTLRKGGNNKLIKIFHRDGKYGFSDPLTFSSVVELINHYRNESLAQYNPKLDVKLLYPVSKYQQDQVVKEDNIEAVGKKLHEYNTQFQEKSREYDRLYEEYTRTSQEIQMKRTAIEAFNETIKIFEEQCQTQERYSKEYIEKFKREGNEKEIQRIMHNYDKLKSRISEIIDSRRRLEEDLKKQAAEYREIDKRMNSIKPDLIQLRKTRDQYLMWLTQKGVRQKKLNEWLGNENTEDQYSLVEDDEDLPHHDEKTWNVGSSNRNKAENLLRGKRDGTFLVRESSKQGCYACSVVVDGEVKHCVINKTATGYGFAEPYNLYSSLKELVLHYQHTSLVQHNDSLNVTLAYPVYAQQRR
# y isoform of PI3K = y isoform of PI3K (Homo sapiens, UniProt P48736); conditions: background statement; cited from earlier work
# Chain of y isoform of PI3K (P48736 whole entry, canonical isoform): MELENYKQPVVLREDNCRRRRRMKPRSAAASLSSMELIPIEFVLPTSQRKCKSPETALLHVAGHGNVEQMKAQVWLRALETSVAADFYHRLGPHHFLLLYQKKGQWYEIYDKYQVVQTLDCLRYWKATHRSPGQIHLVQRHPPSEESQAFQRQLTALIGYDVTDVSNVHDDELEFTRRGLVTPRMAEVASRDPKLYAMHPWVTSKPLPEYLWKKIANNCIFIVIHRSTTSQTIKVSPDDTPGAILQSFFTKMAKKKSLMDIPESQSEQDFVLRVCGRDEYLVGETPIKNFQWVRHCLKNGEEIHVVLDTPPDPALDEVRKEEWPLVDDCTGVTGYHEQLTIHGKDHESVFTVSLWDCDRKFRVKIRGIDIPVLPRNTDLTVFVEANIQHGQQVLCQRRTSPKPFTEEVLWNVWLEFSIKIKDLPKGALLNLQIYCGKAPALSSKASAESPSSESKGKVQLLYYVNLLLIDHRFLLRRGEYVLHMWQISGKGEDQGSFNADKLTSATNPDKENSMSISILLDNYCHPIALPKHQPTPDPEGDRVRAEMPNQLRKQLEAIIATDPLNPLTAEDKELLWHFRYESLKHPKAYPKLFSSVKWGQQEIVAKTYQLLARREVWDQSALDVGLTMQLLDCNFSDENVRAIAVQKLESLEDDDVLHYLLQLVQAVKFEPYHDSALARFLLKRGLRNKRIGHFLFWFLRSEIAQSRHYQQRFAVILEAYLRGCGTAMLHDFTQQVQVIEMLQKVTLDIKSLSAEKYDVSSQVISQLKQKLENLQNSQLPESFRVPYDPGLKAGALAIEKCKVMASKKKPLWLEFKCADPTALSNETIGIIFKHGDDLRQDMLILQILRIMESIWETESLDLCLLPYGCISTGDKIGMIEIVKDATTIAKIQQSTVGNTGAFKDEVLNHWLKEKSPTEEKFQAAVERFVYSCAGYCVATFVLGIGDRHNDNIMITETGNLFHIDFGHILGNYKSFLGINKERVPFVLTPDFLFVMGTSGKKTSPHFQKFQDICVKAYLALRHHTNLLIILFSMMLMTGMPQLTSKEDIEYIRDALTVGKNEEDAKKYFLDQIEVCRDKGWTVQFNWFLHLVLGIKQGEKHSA
# [1] = Pharmacokinetic evaluation of patient plasma samples from a human clinical trial; assay type: in vivo; conditions: metabolite is Compound M1
# Chain of SIK3 (human) (Q9Y2K2 whole entry): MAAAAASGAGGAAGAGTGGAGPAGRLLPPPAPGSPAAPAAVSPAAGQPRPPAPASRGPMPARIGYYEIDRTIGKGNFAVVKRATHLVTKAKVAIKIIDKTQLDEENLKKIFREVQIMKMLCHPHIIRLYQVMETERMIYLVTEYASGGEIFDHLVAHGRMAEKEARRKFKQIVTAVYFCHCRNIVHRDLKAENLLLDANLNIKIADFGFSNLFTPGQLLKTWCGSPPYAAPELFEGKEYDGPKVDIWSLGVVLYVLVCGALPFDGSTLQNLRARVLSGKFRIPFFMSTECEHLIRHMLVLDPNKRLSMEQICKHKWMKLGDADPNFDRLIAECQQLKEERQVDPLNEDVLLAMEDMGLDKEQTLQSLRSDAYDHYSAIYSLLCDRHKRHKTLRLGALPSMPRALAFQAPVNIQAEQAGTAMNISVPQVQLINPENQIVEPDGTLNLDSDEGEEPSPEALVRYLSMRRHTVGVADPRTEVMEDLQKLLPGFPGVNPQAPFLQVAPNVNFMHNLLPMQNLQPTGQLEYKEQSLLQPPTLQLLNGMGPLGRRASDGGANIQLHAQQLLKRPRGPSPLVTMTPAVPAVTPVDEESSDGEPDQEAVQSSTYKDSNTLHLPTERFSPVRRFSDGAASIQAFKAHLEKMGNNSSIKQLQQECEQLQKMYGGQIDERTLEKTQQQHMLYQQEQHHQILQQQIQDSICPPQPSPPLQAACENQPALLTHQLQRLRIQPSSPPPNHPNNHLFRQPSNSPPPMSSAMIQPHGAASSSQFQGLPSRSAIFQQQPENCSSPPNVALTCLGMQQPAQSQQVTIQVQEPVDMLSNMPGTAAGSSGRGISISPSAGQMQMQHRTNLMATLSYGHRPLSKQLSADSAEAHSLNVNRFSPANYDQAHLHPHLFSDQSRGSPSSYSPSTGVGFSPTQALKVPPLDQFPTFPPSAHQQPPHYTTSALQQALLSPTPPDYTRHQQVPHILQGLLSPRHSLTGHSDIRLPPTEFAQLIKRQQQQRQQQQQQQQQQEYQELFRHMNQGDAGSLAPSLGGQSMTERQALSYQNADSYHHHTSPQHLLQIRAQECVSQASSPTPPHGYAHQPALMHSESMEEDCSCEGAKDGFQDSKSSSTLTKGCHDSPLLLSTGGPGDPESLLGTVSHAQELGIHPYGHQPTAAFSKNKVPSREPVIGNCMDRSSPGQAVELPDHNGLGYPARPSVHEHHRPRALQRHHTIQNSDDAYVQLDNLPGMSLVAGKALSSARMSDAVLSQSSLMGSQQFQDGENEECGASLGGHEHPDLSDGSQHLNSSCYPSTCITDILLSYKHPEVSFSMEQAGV
smiles,measurement,setting,value
"CC[C@@H](Nc1ncnc2[nH]c(O)nc12)c1oc2ccccc2c(=O)c1-c1cccc(F)c1 [Compound M2, (R)-3-(3-fluorophenyl)-2-(1-((8-hydroxy-9H-purin-6-yl)amino)propyl)-4H-chromen-4-one]",inhibition at 1 µM,SIK3 (human),100%
"CC[C@H](Nc1ncnc2nc[nH]c12)c1oc2ccccc2c(=O)c1-c1cccc(F)c1 [Tenalisib, 3-(3-fluorophenyl)-2-[(1S)-1-(7H-purin-6-ylamino)propyl]-chromen-4-one]",potency against the 6 isoform of PI3K,6 isoform of PI3K,nanomolar potency
same,potency against the 7 isoform of PI3K,y isoform of PI3K,nanomolar potency
same,metabolism in patients (metabolite formation),[1],underwent metabolism to produce in some subjects

# Reference: US12428422B2, “Purine derivatives as SIK-3 inhibitors” (RHIZEN PHARMACEUTICALS AG, priority 2020, dated 2025)
